The first test addresses T1, human PAH with the R408W mutation (Homo sapiens, UniProt P00439, R408W).
T1 construct: expressed in transfected cells
T1 sequence (P00439 1-452 R408W): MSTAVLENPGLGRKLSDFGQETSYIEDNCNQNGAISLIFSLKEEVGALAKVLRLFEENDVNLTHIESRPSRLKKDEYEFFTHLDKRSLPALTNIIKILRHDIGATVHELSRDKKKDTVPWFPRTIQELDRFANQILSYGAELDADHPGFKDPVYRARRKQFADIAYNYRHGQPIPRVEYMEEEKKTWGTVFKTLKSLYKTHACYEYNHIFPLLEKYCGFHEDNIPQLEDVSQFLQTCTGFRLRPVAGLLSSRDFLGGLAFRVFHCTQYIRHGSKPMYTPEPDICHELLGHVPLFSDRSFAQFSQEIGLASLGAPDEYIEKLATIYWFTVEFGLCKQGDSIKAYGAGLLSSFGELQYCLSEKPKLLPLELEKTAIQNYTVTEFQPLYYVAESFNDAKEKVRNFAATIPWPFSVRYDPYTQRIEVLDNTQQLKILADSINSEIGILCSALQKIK
Nature of the test: Cell Based Phenylalanine Flux Assay.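 Further: Ten-point dose curve from 2-fold serial dilutions, run in duplicate at 0.5% DMSO final, tracer step used 20 µM sepiapterin and 800 µM labeled phenylalanine.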 More on the design: scale not given here. The note with it: A375 cells expressing R408W PAH; 24 hrs with compound, then 20 μM sepiapterin and 800 μM 13C9,15N-Phenylalanine for 4 hours; 13C-Tyrosine in media by LC-MS; average where tested multiple times.
`COc1cccn2nc(C3c4nc[nH]c4CCN3C(=O)c3ccnn3C3CC3)cc12` (centres unmarked): the AC50 result is given as “E, E”.

Consider `Cn1cnc(-c2nc(C(F)F)c(C(=O)N3CCc4[nH]cnc4C3c3cc4ccccn4n3)o2)c1` (centres unmarked), for which the AC50 result is given as “E, E”.

For `Cc1cccn2nc(C3c4nc[nH]c4CCN3C(=O)c3ocnc3C(F)(F)F)cc12` (centres unmarked) [listing 1 of 2 here], the AC50 entry is “E, E”.

For the molecule `Cc1cccn2nc(C3c4nc[nH]c4CCN3C(=O)c3ccnn3C)cc12` (centres unmarked), the AC50 entry is “E, E”.

With `CC(C)c1cccn2nc(C3c4nc[nH]c4CCN3c3ncccn3)cc12` (centres unmarked), the AC50 result is “E, E”.

`Cc1ccn2nc(C3c4nc[nH]c4CCN3C(=O)c3oc(C(C)(C)O)nc3C(F)F)cc2c1` (centres unmarked): the AC50 result was “E, E”.

Take `CC(C)(O)c1nc(C(F)(F)F)c(C(=O)N2CCc3[nH]cnc3C2c2cc3c(Cl)cccn3n2)o1` (centres unmarked): the concentration at half-maximal activity (AC50) result is “E, E”.

For the molecule `Cc1cccn2nc(C3c4nc[nH]c4CCN3C(=O)c3oc(C(C)(C)O)nc3C(F)(F)F)cc12` (centres unmarked), the AC50 result is recorded as “E, E”.

Regarding `FC(F)c1cccn2nc(C3c4nc[nH]c4CCN3c3nnc(-c4ccncn4)o3)cc12` (centres unmarked), the AC50 entry is listed as “E, E”.

As to `O=C(c1ocnc1C(F)(F)F)N1CCc2[nH]cnc2C1c1cc2c(Cl)cccn2n1` (centres unmarked), the AC50 entry is listed as “E. E”.

As to `COc1cccn2nc(C3c4nc[nH]c4CCN3C(=O)c3ccnn3C)cc12` (centres unmarked), the AC50 result is listed as “E, E”.

As to `COc1cccn2nc(C3c4nc[nH]c4CCN3C(=O)c3ncnn3C)cc12` (centres unmarked), the concentration at half-maximal activity (AC50) result was “E, E”.

Regarding `COc1cccn2nc(C3c4nc[nH]c4CCN3C(=O)c3ccnn3C(C)C)cc12` (centres unmarked), the AC50 result is reported as “E, E”.

As to `COc1cccn2nc(C3c4nc[nH]c4CCN3C(=O)c3ccnn3C(F)(F)F)cc12` (centres unmarked), the AC50 result is given as “E, E”.

Turning to `Cc1cccn2nc(C3c4nc[nH]c4CCN3C(=O)c3ccnn3C(C)C)cc12` (centres unmarked), the half-maximal activity concentration (AC50) entry was “E, E”.

For the molecule `Cc1cccn2nc(C3c4nc[nH]c4CCN3C(=O)c3ccnn3C(F)(F)F)cc12` (centres unmarked), the AC50 result is reported as “E, E”.

With `Cc1cccn2nc(C3c4nc[nH]c4CCN3C(=O)c3ocnc3C(F)(F)F)cc12` (centres unmarked) [listing 2 of 2 here], the AC50 entry is listed as “E, E”.

As for `FC(F)c1cccn2nc([C@H]3c4nc[nH]c4CCN3c3nnc(-c4ccncn4)o3)cc12` (single isomer, unassigned), the AC50 entry is on record as “E, E”.

For the molecule `Cc1cccn2nc(C3c4nc[nH]c4CCN3C(=O)c3ccnn3C(F)(F)F)cc12` (single isomer, unassigned), the AC50 result is given as “E, E”.

For the molecule `COc1cccn2nc([C@@H]3c4nc[nH]c4CCN3C(=O)c3ccnn3C3CC3)cc12` (single isomer, unassigned), the AC50 result is on record as “E, E”.

`Cn1cnc(-c2nc(C(F)F)c(C(=O)N3CCc4[nH]cnc4[C@H]3c3cc4ccccn4n3)o2)c1` (single isomer, unassigned): the half-maximal activity concentration (AC50) entry was “E, E”.

The same test, now with this note: A375 cells expressing R408W PAH; 24 hrs with compound, then 20 μM sepiapterin and 800 μM 13C9,15N-Phenylalanine for 4 hours; 13C-Tyrosine in media by LC-MS; average where tested multiple times; read-out: AC50.
Consider `COc1cccn2nc(C3c4nc[nH]c4CCN3C(=O)c3cc(C(C)(C)C)nn3C)cc12` (centres unmarked), for which the AC50 is above 5 µM.

For `N#Cc1ncoc1C(=O)N1CCc2[nH]cnc2C1c1nn2ccccc2c1Br` (centres unmarked), the AC50 lay within 1 to 5 µM.

For `Fc1ccc(-c2nnc(N3CCc4[nH]cnc4C3c3cc4ccccn4n3)o2)nc1` (centres unmarked), the AC50 is above 5 µM.

For the molecule `Cn1cc(N2CCc3[nH]cnc3C2c2cc3ccccn3n2)cn1` (centres unmarked), the AC50 was above 5 µM.

Consider `CC1(c2nnc(N3CCc4[nH]cnc4C3c3cc4ccccn4n3)o2)CC1` (centres unmarked), for which the AC50 fell in the range of 1 to 5 µM.

For `O=C(c1nnc(-c2cc[nH]n2)o1)N1CCc2[nH]cnc2C1c1cc2ccccn2n1` (centres unmarked), the AC50 was in the range of 1 to 5 µM.

With `CC(C)(F)c1nnc(C(=O)N2CCc3[nH]cnc3C2c2cc3cc(C(F)(F)F)ccn3n2)o1` (centres unmarked), the AC50 is 1 to 5 µM.

`O=C(c1nnc(C2CC(F)(F)C2)o1)N1CCc2[nH]cnc2C1c1cc2cccc(F)n2n1` (centres unmarked): the AC50 was 1 to 5 µM.

As to `O=C(c1nnc(-c2cn[nH]c2)o1)N1CCc2[nH]cnc2C1c1cc2c(F)cccn2n1` (centres unmarked), the AC50 lay within 1 to 5 µM.

Consider `Cc1nnc(C(=O)N2CCc3[nH]cnc3C2c2cc3ccc(F)cn3n2)o1` (centres unmarked), for which the AC50 fell in the range of 1 to 5 µM.

With `Cc1nnc(C(=O)N2CCc3[nH]cnc3C2c2cc3cccc(C(F)F)n3n2)o1` (centres unmarked), the concentration at half-maximal activity (AC50) lay in the range of 1 to 5 µM.

For `Nc1cnc(N2CCc3[nH]cnc3C2c2cc3cccc(C(F)F)n3n2)nc1` (centres unmarked), the AC50 is above 5 µM.

Turning to `Cn1cnc(-c2nnc(C(=O)N3CCc4[nH]cnc4C3c3cc4cccc(C(F)F)n4n3)o2)c1` (centres unmarked), the concentration at half-maximal activity (AC50) lay within 1 to 5 µM.

Regarding `O=C(c1nnc(-c2ncccn2)o1)N1CCc2[nH]cnc2C1c1cc2c(C3CC3)cccn2n1` (centres unmarked), the AC50 is above 5 µM.

As for `COc1cccn2nc(C3c4nc[nH]c4CCN3C(=O)c3nnc(C(C)(C)O)o3)cc12` (centres unmarked), the AC50 is above 5 µM.

With `COCc1ncc(C(=O)N2CCc3[nH]cnc3C2c2cc3ccccn3n2)o1` (centres unmarked), the AC50 was 1 to 5 µM.

For `c1ccn2nc(C3c4nc[nH]c4CCN3c3nnc(C4CC4)o3)cc2c1` (centres unmarked), the AC50 was in the range of 1 to 5 µM.

Regarding `COCc1ccc2c(C(=O)N3CCc4[nH]cnc4C3c3cc4cccc(F)n4n3)cnn2c1` (centres unmarked), the AC50 fell in the range of 1 to 5 µM.

Take `Cc1ccn2nc(C3c4nc[nH]c4CCN3C(=O)c3nnc(-c4cnn(C)c4)o3)cc2c1` (single isomer, unassigned): the AC50 is above 5 µM.

`Cn1cncc1-c1nnc(C(=O)N2CCc3[nH]cnc3[C@@H]2c2cc3cccc(C(F)F)n3n2)o1` (single isomer, unassigned): the AC50 is above 5 µM.

Turning to `Fc1cccc2cc([C@H]3c4nc[nH]c4CCN3c3ncccn3)nn12` (single isomer, unassigned), the AC50 was above 5 µM.

Consider `Cc1nnc(C(=O)N2CCc3[nH]cnc3[C@@H]2c2cc3cccc(C)n3n2)o1` (single isomer, unassigned), for which the AC50 is above 5 µM.

Turning to `Cn1nc(C(C)(C)C)cc1C(=O)N1CCc2[nH]cnc2[C@@H]1c1cc2c(F)cccn2n1` (single isomer, unassigned), the half-maximal activity concentration (AC50) was above 5 µM.

`O=C(Cc1cnn2ccccc12)N1CCc2[nH]cnc2[C@H]1c1cc2ccccn2n1` (single isomer, unassigned): the AC50 lay in the range of 1 to 5 µM.

As to `Cn1cncc1-c1nnc(C(=O)N2CCc3[nH]cnc3[C@H]2c2cc3cccc(C(F)(F)F)n3n2)o1` (single isomer, unassigned), the AC50 is 1 to 5 µM.

`Cn1ccc(-c2nnc(C(=O)N3CCc4[nH]cnc4[C@H]3c3cc4cc(C(F)(F)F)ccn4n3)o2)n1` (single isomer, unassigned): the AC50 fell in the range of 1 to 5 µM.

On to `Cc1cccn2nc([C@@H]3c4nc[nH]c4CCN3c3nnc(-c4cnn(C)c4)o3)cc12` (single isomer, unassigned), for which the concentration at half-maximal activity (AC50) was 1 to 5 µM.

Take `O=C(c1nnc(C2CC(F)(F)C2)o1)N1CCc2[nH]cnc2[C@H]1c1cc2cccc(C(F)F)n2n1` (single isomer, unassigned): the AC50 lay in the range of 1 to 5 µM.

In the case of `Cc1nnc(C(=O)N2CCc3[nH]cnc3[C@H]2c2cc3c(OC(F)F)cccn3n2)o1` (single isomer, unassigned), the AC50 was in the range of 1 to 5 µM.

`COc1cccn2nc([C@@H]3c4nc[nH]c4CCN3C(=O)c3nnc(-c4cnn(C(F)(F)F)c4)o3)cc12` (single isomer, unassigned): the AC50 is 1 to 5 µM.

Turning to `Fc1cccc2cc([C@@H]3c4nc[nH]c4CCN3c3ncccn3)nn12` (single isomer, unassigned), the AC50 was in the range of 1 to 5 µM.

For the molecule `Cc1cccc2cc([C@@H]3c4nc[nH]c4CCN3C(=O)c3nnc(C(C)(C)O)o3)nn12` (single isomer, unassigned), the AC50 fell in the range of 1 to 5 µM.

For the molecule `Cc1c([C@@H]2c3nc[nH]c3CCN2C(=O)c2nnc(C(C)(C)O)o2)nn2ccccc12` (single isomer, unassigned), the AC50 was above 5 µM.

With `O=C(c1nnc(-c2ncccn2)o1)N1CCc2[nH]cnc2[C@H]1c1cc2c(OC(F)F)cccn2n1` (single isomer, unassigned), the AC50 is 1 to 5 µM.

As to `CC(C)(O)c1noc(C(=O)N2CCc3[nH]cnc3[C@H]2c2cc3ccccn3n2)n1` (single isomer, unassigned), the half-maximal activity concentration (AC50) is above 5 µM.

Consider `FC(F)(F)c1cccc2cc([C@@H]3c4nc[nH]c4CCN3c3nnc(C4CC4)o3)nn12` (single isomer, unassigned), for which the AC50 fell in the range of 1 to 5 µM.

In the case of `Cc1nnc(C(=O)N2CCc3[nH]cnc3C2c2nn3ccccc3c2C)o1` (single isomer, unassigned), the concentration at half-maximal activity (AC50) was 1 to 5 µM.

Take `Cn1nc(C(F)F)nc1C(=O)N1CCc2[nH]cnc2[C@H]1c1cc2ccc(F)cn2n1` (single isomer, unassigned): the AC50 was in the range of 1 to 5 µM.

Consider `Cn1nc(C2CC2)nc1C(=O)N1CCc2[nH]cnc2C1c1cc2c(F)cccn2n1` (single isomer, unassigned), for which the AC50 lay within 1 to 5 µM.

In the case of `O=C(c1nnc(N2CCOCC2)o1)N1CCc2[nH]cnc2[C@H]1c1cc2ccccn2n1` (single isomer, unassigned), the AC50 fell in the range of 1 to 5 µM.

With `COCc1ccc2c(C(=O)N3CCc4[nH]cnc4[C@H]3c3cc4ccccn4n3)cnn2c1` (single isomer, unassigned), the concentration at half-maximal activity (AC50) fell in the range of 1 to 5 µM.

Regarding `Cc1cccn2nc([C@@H]3c4nc[nH]c4CCN3c3nnc(C(=O)N(C)C)o3)cc12` (single isomer, unassigned), the AC50 was 1 to 5 µM.

As to `CN(C)c1nnc(C(=O)N2CCc3[nH]cnc3[C@H]2c2cc3ccccn3n2)o1` (single isomer, unassigned), the AC50 was in the range of 1 to 5 µM.

Consider `Cc1nc([C@@H](C)O)oc1C(=O)N1CCc2[nH]cnc2[C@H]1c1cc2cccc(C)n2n1` (single isomer, unassigned), for which the AC50 lay within 1 to 5 µM.

The values are drawn from patent US12673961B2 (Agios Pharmaceuticals, Inc., priority 2022, dated 2026).
